Data on two molecules can be found in patent US11666636B2, “GLP-1R agonists and uses thereof” (priority 2017, dated 2023).

For data set [1], the system named is liver inflammation, aortic atherosclerosis. The settings on record: rodent model; reported in literature; cited from earlier work.
Data set [2] relates to serum inflammatory cytokines. The settings on record: rodent model; reported in literature; cited from earlier work.
For data set [3] the following is noted: 6 days after infection; vs vehicle.

In the case of exendin-4, in data set [1], the aortic atherosclerosis entry is given as “reduced” and the liver inflammation result is “reduced”. Further, the “serum inflammatory cytokines during LPS-induced endotoxemia” value in data set [2] is reported as “reduced”.
On to `CCCCCCCCCCCCCCCC(=O)N[C@@H](CCC(=O)NCCCC[C@H](NC(=O)[C@H](C)NC(=O)[C@H](C)NC(=O)[C@H](CCC(N)=O)NC(=O)CNC(=O)[C@H](CCC(=O)O)NC(=O)[C@H](CC(C)C)NC(=O)[C@H](Cc1ccc(O)cc1)NC(=O)[C@H](CO)NC(=O)[C@H](CO)NC(=O)[C@@H](NC(=O)[C@H](CC(=O)O)NC(=O)[C@H](CO)NC(=O)[C@@H](NC(=O)[C@H](Cc1ccccc1)NC(=O)[C@@H](NC(=O)CNC(=O)[C@H](CCC(=O)O)NC(=O)[C@H](C)NC(=O)[C@@H](N)Cc1cnc[nH]1)[C@@H](C)O)[C@@H](C)O)C(C)C)C(=O)N[C@@H](CCC(=O)O)C(=O)N[C@@H](Cc1ccccc1)C(=O)N[C@H](C(=O)N[C@@H](C)C(=O)N[C@@H](Cc1c[nH]c2ccccc12)C(=O)N[C@@H](CC(C)C)C(=O)N[C@H](C(=O)N[C@@H](CCCNC(=N)N)C(=O)NCC(=O)N[C@@H](CCCNC(=N)N)C(=O)NCC(=O)O)C(C)C)[C@@H](C)CC)C(=O)O` [GLP-1R agonist, liraglutide], for which, in data set [3], the plasma glucose levels entry is reported as “no statistically significant changes” and the plasma insulin levels entry was “no statistically significant changes”.
